# US20190307713A1, “COMBINATIONS OF DICLOFENAC AND H2 RECEPTOR ANTAGONISTS FOR THE TREATMENT OF PAIN AND INFLAMMATION” (priority 2016, published 2019)
# Assays:
# [1] = test system: Caco-2 intestinal permeability model; assay: Caco-2 permeability study of diclofenac potassium and famotidine separately and in combination; format: in vitro ADME; details: Caco-2, 50 μg/ml diclofenac potassium (20 μg/ml famotidine in combination)
# Protocol: The permeability study designed using Caco-2 intestinal permeability model was prepared by using Millipore 96 well insert plate as 10,000 cells/well on Feb. 21, 2017 and placed in an incubator. Tests on integrity, viability and permeability were performed on Mar. 15, 2017. Viability results were obtained by MTT and integrity results were obtained using Lucifer yellow and the plate was determined to be eligible for permeability study. […] Methanol was used as solvent for the samples and the samples were analyzed in LC/MSMS 8040 analyzer using mobile phase, Methanol+bidistillated water+Ammonium formate.
# [2] = in vivo; details: male, Wistar, rat, po
# Protocol: Male Wistar rats (240-260 g) were maintained in an air conditioned quarters at a temperature of 22±2° C. and a relative humidity of 50±10%. Food and water were allowed ad libitum. The animals were acclimatized to the facilities for five days, and then fasted with free access to water for 12 h prior to the experiment. All these animals were housed under similar conditions.
# Blood (0.2 ml) was taken from the tail vein prior to administration of test substances (0 h) and blood was taken after 0.083, 0.167, 0.25, 0.5, 1, 2, 4, 8 and 12 h respectively.
# Blood samples were collected in tubes containing %5 Nat-EDTA and kept on ice until dichloromethane was added and they were centrifuged at 7000×g for 5 min at 4° C. and supernatants were collected for HPLC analysis.
# [3] = oral, instant or immediate release formulations; cited from earlier work
Permeability percentage of Diclofenac potassium ([1]; 1 hour) [%],Permeability percentage of Diclofenac potassium ([1]; 1.5 hours) [%],Permeability percentage of Diclofenac potassium ([1]; 2 hours) [%],Permeability percentage of Diclofenac potassium ([1]; 4 hours) [%],Permeability percentage of Diclofenac potassium ([1]; 8 hours) [%],Cmax [2] [ng/mL],Tmax [2] [min],SMILES,Tmax (time to the maximum plasma concentration) [3]
76.93,80.76,81.80,82.22,86.32,1.24,15,"O=C(O)Cc1ccccc1Nc1c(Cl)cccc1Cl [Diclofenac potassium, 2-[2-(2,6-dichloroanilino)phenyl]acetic acid]",
,,,,,,,"O=C(O)Cc1ccccc1Nc1c(Cl)cccc1Cl [diclofenac, 2-[2-(2,6-dichloroanilino)phenyl]acetic acid]",about 1 hour
